Data taken from the NIST ThermoML archive (doi:10.1021/je200178b).
Numbers after ± are expanded uncertainties.

Experiment: mean ionic activity coefficient (dimensionless); mn = molality of the nth substance listed, in mol/kg
Conditions: 298.15 K, 101 kPa, Liquid, ion-selective electrode

In the case of [Cs+].[F-] [cesium fluoride (CsF)] + O, the “mean ionic activity coefficient” value (m1 = 0.0043) is reported as 0.9338 ± 0.0011, the “mean ionic activity coefficient” value (m1 = 0.0085) is reported as 0.9112 ± 0.0009 and the “mean ionic activity coefficient” value (m1 = 0.0128) is reported as 0.8953 ± 0.0007. For the same compound, the “mean ionic activity coefficient” value (m1 = 0.0172) was 0.8824 ± 0.0005, the “mean ionic activity coefficient” value (m1 = 0.0215) was 0.872 ± 0.0005 and the “mean ionic activity coefficient” value (m1 = 0.0258) was 0.863 ± 0.0004. For the same compound, the “mean ionic activity coefficient” value (m1 = 0.0302) was 0.8551 ± 0.0003, the “mean ionic activity coefficient” value (m1 = 0.0346) was 0.848 ± 0.0003 and the “mean ionic activity coefficient” value (m1 = 0.0391) was 0.8416 ± 0.0003. The “mean ionic activity coefficient” value (m1 = 0.0437) was 0.8355 ± 0.0002, the “mean ionic activity coefficient” value (m1 = 0.0523) was 0.8257 ± 0.0002 and the “mean ionic activity coefficient” value (m1 = 0.0608) was 0.8173 ± 0.0002. The “mean ionic activity coefficient” value (m1 = 0.0698) was 0.8096 ± 0.0002, the “mean ionic activity coefficient” value (m1 = 0.0787) was 0.8028 ± 0.0002 and the “mean ionic activity coefficient” value (m1 = 0.0875) was 0.7968 ± 0.0001. For the same compound, the “mean ionic activity coefficient” value (m1 = 0.1003) was 0.7892 ± 0.0001, the “mean ionic activity coefficient” value (m1 = 0.1138) was 0.7822 ± 0.0001 and the “mean ionic activity coefficient” value (m1 = 0.1268) was 0.7762 ± 0.0001. For the same compound, the “mean ionic activity coefficient” value (m1 = 0.1455) was 0.7689 ± 0.0001, the “mean ionic activity coefficient” value (m1 = 0.1632) was 0.7629 ± 0.0001 and the “mean ionic activity coefficient” value (m1 = 0.1817) was 0.7575 ± 0.0001. For the same compound, the “mean ionic activity coefficient” value (m1 = 0.2045) was 0.7517 ± 0.0001, the “mean ionic activity coefficient” value (m1 = 0.226) was 0.7471 ± 0.0001 and the “mean ionic activity coefficient” value (m1 = 0.2524) was 0.7423 ± 0.0001. For the same compound, the “mean ionic activity coefficient” value (m1 = 0.2823) was 0.7377 ± 0.0001, the “mean ionic activity coefficient” value (m1 = 0.3166) was 0.7335 ± 0.0001 and the “mean ionic activity coefficient” value (m1 = 0.3589) was 0.7294 ± 0.0001. The “mean ionic activity coefficient” value (m1 = 0.4086) was 0.7259 ± 0.0001 and the “mean ionic activity coefficient” value (m1 = 0.4762) was 0.7227 ± 0.0001.
With [F-].[Rb+] [rubidium fluoride (RbF)] + O the “mean ionic activity coefficient” value (m1 = 0.0046) was 0.9305 ± 0.001, the “mean ionic activity coefficient” value (m1 = 0.0096) was 0.9047 ± 0.0009 and the “mean ionic activity coefficient” value (m1 = 0.014) was 0.8889 ± 0.0006. The “mean ionic activity coefficient” value (m1 = 0.0187) was 0.8759 ± 0.0005, the “mean ionic activity coefficient” value (m1 = 0.0232) was 0.8654 ± 0.0004 and the “mean ionic activity coefficient” value (m1 = 0.0275) was 0.8567 ± 0.0004. For the same compound, the “mean ionic activity coefficient” value (m1 = 0.0321) was 0.8486 ± 0.0003, the “mean ionic activity coefficient” value (m1 = 0.0367) was 0.8414 ± 0.0003 and the “mean ionic activity coefficient” value (m1 = 0.0411) was 0.8351 ± 0.0003. The “mean ionic activity coefficient” value (m1 = 0.0506) was 0.8235 ± 0.0002, the “mean ionic activity coefficient” value (m1 = 0.0596) was 0.8141 ± 0.0002 and the “mean ionic activity coefficient” value (m1 = 0.0685) was 0.806 ± 0.0002. For the same compound, the “mean ionic activity coefficient” value (m1 = 0.0772) was 0.799 ± 0.0002, the “mean ionic activity coefficient” value (m1 = 0.0915) was 0.7891 ± 0.0001 and the “mean ionic activity coefficient” value (m1 = 0.1058) was 0.7806 ± 0.0001. For the same compound, the “mean ionic activity coefficient” value (m1 = 0.1293) was 0.769 ± 0.0001, the “mean ionic activity coefficient” value (m1 = 0.1517) was 0.7599 ± 0.0001 and the “mean ionic activity coefficient” value (m1 = 0.1747) was 0.7521 ± 0.0001. For the same compound, the “mean ionic activity coefficient” value (m1 = 0.2107) was 0.7421 ± 0.0001, the “mean ionic activity coefficient” value (m1 = 0.2467) was 0.7342 ± 0.0001 and the “mean ionic activity coefficient” value (m1 = 0.2819) was 0.7278 ± 0.0001. The “mean ionic activity coefficient” value (m1 = 0.3349) was 0.7202 ± 0.0001, the “mean ionic activity coefficient” value (m1 = 0.3859) was 0.7146 ± 0.0001 and the “mean ionic activity coefficient” value (m1 = 0.4584) was 0.7086 ± 0.0001. The “mean ionic activity coefficient” value (m1 = 0.5332) was 0.7043 ± 0.0001 and the “mean ionic activity coefficient” value (m1 = 0.6214) was 0.701 ± 0.0001.
